According to paper PMC11814485, “Screening of homing and tissue-penetrating peptides by microdialysis and in vivo phage display” (Life Science Alliance, 2025):

Assays:
CHO-K cells = experiment: Peptide internalization in vitro, confocal imaging, CHO-K cells; format: cell-based, Chinese hamster; settings: FAM-labeled peptide 20 μM, 3 h, 37°C, confocal fluorescence imaging, representative of three experiments
Procedure: Figure 1. Microdialysis-captured peptides penetrate the cell membrane. […] CHO-K cells were grown on chamber slides. […] The scale bar is 20 μm. Images are representative of three individual experiments.
Plain growth medium was used as a negative control.

retina (OIR model) = experiment: Homing of FAM-peptides to retina and vitreous in oxygen-induced retinopathy (OIR) and to normal retina; format: in vivo, mouse (C57BL/6Rj); settings: for peptide accumulation in the vitreous of the OIR retina relative to the control peptide / area of positive staining in OIR retina relative to a control peptide: OIR mice P17, 5 mg/kg, 120 min circulation, anti-FAM; for area of positive staining in OIR retina relative to a control peptide: N = 8; for homing signal in OIR retinas around retinal and preretinal blood vessels: OIR mice P17, 120 min, anti-FAM staining
Procedure: Figure 3. Microdialysis-captured peptides home to skin wounds and penetrate blood–retina barrier in retinopathy. Systemically administered homing peptides CDD, CPK, and CYH accumulate in skin wounds and penetrate blood–retina barrier in retinopathy. Full-thickness wounds, 6 mm in diameter, in the back skin of 8-wk-old male mice were used. After 7 d, each peptide or PBS was injected into the tail vein. For retinopathy experiments, oxygen-induced retinopathy (OIR) was induced by placing mouse pups at day P7 in a hyperoxia chamber for 5 d. On P17, when the angiogenesis peaks in this OIR model, the peptides were injected into the tail vein. The peptides circulated for 150 min (wounds) and 120 min (OIR) before the vasculature was thoroughly perfused. The skin wounds and eyeballs were fixed, and histological samples stained with anti-FAM and hematoxylin. Peptide homing was quantified with the automated image analysis system. (A) Microdialysis-identified peptides home to skin wounds. […] (D) All three microdialysis-identified peptides also accumulate substantially in the vitreous in the OIR model. *P < 0.05, **P < 0.01, ***< 0.001. Each datapoint represents an individual wound, retina, or vitreous. N = 3 for skin wound, and N = 6 and N = 8 for normal and OIR retinas.
We wanted to explore whether the new wound-penetrating peptides externalize and penetrate tissues that have an additional barrier around the blood vessels. The retinal blood vessels have an additional element, blood–retina barrier (BRB) that hinders the access of systemically administered drugs to retina ([Lahdenranta et al, 2007]; [Sweeney et al, 2019]; [Vähätupa, et al, 2020b]). Thus, we explored the homing of the new peptides to the normal retina and to the retinal angiogenesis in the oxygen-induced retinopathy (OIR) model ([Vähätupa, et al, 2020b]). […] Next, we quantified the area of positive staining in the retina. There was ninefold more of CYH (P < 0.01) and 120-fold and 88-fold more of CDD and CPK than of a control peptide in OIR retinas (P < 0.0001 for the CDD and CPK peptides) (Fig 3C).
Figure 4. Microdialysis-captured peptides home and penetrate to retina in retinopathy. The CDD, CPK, and CYH peptides accumulate in the retina and vitreous in oxygen-induced retinopathy (OIR). The OIR model was carried out as described previously ([Vähätupa et al, 2020b]). At P17, the peptides were injected into the tail vein and circulated for 120 min before the vasculature was thoroughly perfused. The eyeballs were fixed and histological sections stained with anti-FAM antibody and hematoxylin. (A) None of the tested peptides homed to the normal retina after the systemic administration at P17. (B) Three microdialysis-identified homing peptides homed and penetrated into the retina in OIR at the peak of angiogenesis at P17. The peptides also accumulate in the vitreous in the OIR model. (A, B, C) High-magnification images of peptide accumulation in OIR retina. The scale bar is 100 μm for (A, B) and 20 μm for (C). Images are representative of N = 6 and N = 8 for normal and OIR retinas.
WT C57BL/6Rj mice were used for the OIR experiments ([Vähätupa, et al, 2020a]). The OIR model was performed as described in detail previously ([Vähätupa, et al, 2020a]; [De Rossi et al, 2021]). Briefly, to induce retinopathy in the retina, the pups and their nursing mothers were exposed to 75% oxygen in a custom-made chamber (ProOx P110 oxygen controller; BioSpherix Ltd.) at postnatal day 7 (P7) for 5 d until P12 when they were returned to normal room air. The homing experiments were performed at P17 (late hypoxic phase and the peak of neovascularization) ([Vähätupa et al, 2021]). Control animals were housed under normal room air conditions, and retinas were harvested on the corresponding day (P17). All retina experiments were conducted under the ARVO Statement for the Use of Animals in Ophthalmic and Vision Research guidelines. […]

Sequence | cellular uptake in CHO-K cells (CHO-K cells) | peptide accumulation in the vitreous of the OIR retina relative to the control peptide (retina (OIR model)) | area of positive staining in OIR retina relative to a control peptide (retina (OIR model)) | homing signal in OIR retinas around retinal and preretinal blood vessels (retina (OIR model))
CDDYQQISC [FAM-labeled synthetic peptide …] | accumulate in the CHO-K cells | 67.2 × | 120 fold | strong homing signal
CPKKHHLDC [FAM-labeled synthetic peptide …] | accumulate in the CHO-K cells | 80.3 × | 88 fold | strong homing signal
CYHDTYPNC [FAM-labeled synthetic peptide …] | accumulate in the CHO-K cells | 16.9 × | ninefold | strong homing signal
